In paper PMC11605156, “Triterpenoids from Ganoderma lucidum inhibit cytochrome P450 enzymes interfering with the metabolic process of specific clinical drugs” (Frontiers in Pharmacology, 2024) one finds IC50 and activity data, which are given here for one molecule.

For one series, the target named is CYP2C19 (Homo sapiens, UniProt P33261). As to the kind of experiment: CYP2C19 inhibition, S-mephenytoin probe in human liver microsomes.
The next series deals with CYP2D6 (Homo sapiens, UniProt P10635). As to the kind of experiment: CYP2D6 inhibition, dextromethorphan probe in human liver microsomes. To be noted: human, human liver microsomes, pH 7.4, probe dextromethorphan 5 μM, Residual activity (%) CYP2D6, HLM 0.5 mg/mL. Background: Liver microsomes are a subcellular fraction often used to study metabolism.
Sequence of CYP2D6 (P10635 whole entry): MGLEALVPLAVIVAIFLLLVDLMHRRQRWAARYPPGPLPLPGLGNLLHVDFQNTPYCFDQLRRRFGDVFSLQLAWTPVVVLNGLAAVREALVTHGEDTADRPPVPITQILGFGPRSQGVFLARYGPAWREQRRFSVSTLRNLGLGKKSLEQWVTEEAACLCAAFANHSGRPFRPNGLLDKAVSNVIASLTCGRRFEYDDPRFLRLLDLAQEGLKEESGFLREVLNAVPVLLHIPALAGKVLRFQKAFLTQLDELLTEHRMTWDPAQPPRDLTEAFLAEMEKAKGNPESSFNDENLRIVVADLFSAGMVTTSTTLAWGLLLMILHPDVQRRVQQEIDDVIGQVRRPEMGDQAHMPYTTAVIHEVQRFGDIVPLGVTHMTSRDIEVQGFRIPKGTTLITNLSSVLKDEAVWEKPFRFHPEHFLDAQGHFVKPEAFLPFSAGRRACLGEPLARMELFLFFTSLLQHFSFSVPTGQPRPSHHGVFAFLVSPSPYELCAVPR
A further series concerns the target T1, CYP2A6 (Homo sapiens, UniProt P11509).
T1 sequence (P11509 1-494): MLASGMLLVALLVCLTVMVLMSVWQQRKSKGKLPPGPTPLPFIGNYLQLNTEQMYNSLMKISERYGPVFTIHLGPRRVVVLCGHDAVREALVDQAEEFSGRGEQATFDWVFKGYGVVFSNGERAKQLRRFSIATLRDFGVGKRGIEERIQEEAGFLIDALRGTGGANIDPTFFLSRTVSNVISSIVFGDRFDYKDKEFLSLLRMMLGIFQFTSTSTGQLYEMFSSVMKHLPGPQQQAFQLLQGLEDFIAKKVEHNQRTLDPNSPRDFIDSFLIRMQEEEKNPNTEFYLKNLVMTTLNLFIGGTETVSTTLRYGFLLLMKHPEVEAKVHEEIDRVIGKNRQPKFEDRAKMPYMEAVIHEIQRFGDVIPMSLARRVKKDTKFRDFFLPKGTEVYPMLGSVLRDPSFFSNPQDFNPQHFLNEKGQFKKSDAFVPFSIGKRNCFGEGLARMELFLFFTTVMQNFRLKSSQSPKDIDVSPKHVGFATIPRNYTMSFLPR
Description: CYP2A6 inhibition, coumarin probe in human liver microsomes. The settings on record: human, human liver microsomes, pH 7.4, probe coumarin 2 μM, Residual activity (%) CYP2A6, HLM 0.5 mg/mL.

Sequence of CYP2C19 (P33261 whole entry): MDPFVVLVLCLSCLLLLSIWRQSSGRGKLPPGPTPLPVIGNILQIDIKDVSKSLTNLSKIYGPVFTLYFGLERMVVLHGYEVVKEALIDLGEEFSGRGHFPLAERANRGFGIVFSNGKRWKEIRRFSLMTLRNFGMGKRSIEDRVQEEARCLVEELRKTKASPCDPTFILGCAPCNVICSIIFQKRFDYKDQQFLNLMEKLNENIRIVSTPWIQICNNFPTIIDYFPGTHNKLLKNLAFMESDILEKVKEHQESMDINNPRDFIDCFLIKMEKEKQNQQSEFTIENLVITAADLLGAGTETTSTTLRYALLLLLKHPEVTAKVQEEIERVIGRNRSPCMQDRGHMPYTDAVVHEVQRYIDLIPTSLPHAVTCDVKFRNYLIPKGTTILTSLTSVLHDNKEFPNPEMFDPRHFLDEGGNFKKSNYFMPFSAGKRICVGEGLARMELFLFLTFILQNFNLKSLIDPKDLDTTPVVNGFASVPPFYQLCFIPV

`CC(CCC(O)C(C)(O)CO)C1CCC2(C)C3=C(C(=O)CC12C)C1(C)CCC(=O)C(C)(C)C1CC3` (stereo not shown) [Compound 25, ganodrol C] displayed an IC50 on CYP2C19 of 15.4 µM. Besides, the activity at 30 min on CYP2C19 (human, human liver microsomes, pH 7.4, probe S-mephenytoin 50 μM, Residual activity (%) CYP2C19, HLM 0.5 mg/mL, S-mephenytoin 50 μM, 30 min) was 39.2 ± 4.83%; at CYP2D6, 68.22 ± 0.44%; at CYP2A6, 70.1 ± 2.15%.

A word on the IC50: it is the concentration that inhibits the measured activity by half.
